# Square brackets hold non-standard residues; d marks the D form. Peptide text beside a SMILES is read from it. hArg = N=C(N)NCCCC[C@H](N)C(=O)O; Aib = CC(C)(N)C(=O)O
# Molecular target: T1, PTH-1 receptor endogenously expressed in SaOS-2 cells (Homo sapiens, UniProt Q03431)
# T1 construct: endogenously expressed relatively low levels of the PTH-1 receptor; endogenous in cells; host or cells: SaOS-2 (SaOS-2-B10) human osteosarcoma cells
# T1 sequence (Q03431 27-593): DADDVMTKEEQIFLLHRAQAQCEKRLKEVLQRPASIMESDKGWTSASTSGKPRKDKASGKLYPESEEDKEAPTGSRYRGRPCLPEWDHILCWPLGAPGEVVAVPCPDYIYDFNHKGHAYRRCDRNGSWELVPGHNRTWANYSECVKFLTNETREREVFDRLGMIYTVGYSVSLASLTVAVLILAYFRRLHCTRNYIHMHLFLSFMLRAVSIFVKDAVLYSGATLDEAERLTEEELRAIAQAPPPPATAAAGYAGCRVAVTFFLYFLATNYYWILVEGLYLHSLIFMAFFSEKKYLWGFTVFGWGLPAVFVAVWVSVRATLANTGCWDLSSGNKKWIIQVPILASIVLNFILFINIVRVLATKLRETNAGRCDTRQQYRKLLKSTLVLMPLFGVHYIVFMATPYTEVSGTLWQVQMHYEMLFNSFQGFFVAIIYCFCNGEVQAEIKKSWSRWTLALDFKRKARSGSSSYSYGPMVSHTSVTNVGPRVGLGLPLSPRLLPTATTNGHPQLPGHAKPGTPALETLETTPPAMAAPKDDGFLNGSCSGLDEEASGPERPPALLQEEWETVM
# Test: cAMP stimulation in SaOS-2 cells
# Format: cell-based
# Conditions: for EMAX(obs.): basal 6.4 ± 0.8; for EC50: N.R. = no cAMP response detected
# Method: Cell Culture. The cell line HKRK-B28 (Takasu, H., et al., J. Bone Miner. Res. 14:11-20 (1999)) was derived from the porcine kidney cell line, LLC-PK1 by stable transfection with plasmid DNA encoding the human P1R and expresses ˜280,000 receptors per cell. These cells, as well as COS-7 cells and SaOS-2-B10 cells, were cultured at […] in T-75 flasks ([…]) in Dulbecco's modified Eagle's medium (DMEM) supplemented with fetal bovine serum (10%), penicillin G (20 units/ml), streptomycin sulfate (20 μg/ml) and amphotericin B (0.05 μg/ml) in a humidified atmosphere containing 5% CO2. Stock solutions of EGTA/trypsin and antibiotics were from GIBCO; fetal bovine serum was from Hyclone Laboratories (Logan, Utah). COS-7 cells sub-cultured in 24-well plates were transfected with plasmid DNA (200 ng per well) encoding the wild-type human P1R or truncated human P1R deleted for residues (24-181) (Shimizu, M., et al., J. Biol. Chem. 275:21836-21843 (2000)) that was purified by cesium chloride/ethidium bromide density gradient centrifugation, and FuGENE 6 transfection reagent (Roche Indianapolis Ind.) according to the manufacturer's recommended procedure. All cells, in 24-well plates, were treated with fresh media and shifted to 33° C. for 12 to 24 h prior to assay.
# cAMP Stimulation. Stimulation of cells with peptide analogs was performed in 24-well plates. Cells were rinsed with 0.5 mL of binding buffer (50 mM Tris-HCI, […], 5 mM KCl, 2 mM CaCl2, 5% heat-inactivated horse serum, 0.5% fetal bovine serum, adjusted to pH 7.5 with HCl) and treated with 200 μL of cAMP assay buffer (Delbecco's modified Eagle's medium containing 2 mM 3-isobutyl-1-methylxanthine, 1 mg/mL bovine serum albumin, 35 mM Hepes-NaOH, pH 7.4) and 100 μL of binding buffer containing varying amounts of peptide analog (final volume=300 μL). The medium was removed after incubation for 30 to 60 minutes at room temperature, and the cells were frozen on dry ice, lysed with 0.5 mL 50 mM HCl, and refrozen ([…]). The cAMP content of the diluted lysate was determined by radioimmunoassay. The EC50 response values were calculated using nonlinear regression (see below).
# Data Calculation. Calculations were performed using Microsoft® Excel. Nonlinear regression analyses of binding and cAMP dose-response data were performed using the four-parameter equation: yp=Min+[(Max−Min)/(1+(IC50/x)^slope)]. The Excel Solver function was utilized for parameter optimization, as described previously (Carter, P. H., et al., Endocrinology 140: 4972-4981 (1999); Bowen, W. P., and Jerman, J. C., Trends in Pharmacol. Sci. 16: 413-417 (1995)). Differences between paired data sets were statistically evaluated using a one-tailed Student's t-test, assuming unequal variances for the two sets.
# The number of PTH-1 receptors expressed on the surface of the PTH target cells in bone or kidney is uncertain, but it is likely to be considerably lower than that found in HKRK-B28 cells. Therefore, several of the Aib-mounted PTH analogs were evaluated using SaOS-2 cells.
Molecule,EMAX(obs.) (cAMP) [pmole/well],fold more potent in stimulating cAMP formation than [M]PTH(1-14) [fold],fold less potent than PTH(1-34) (cAMP) [fold],EC50 (cAMP),"EC50 (cAMP, listed as native PTH(1-14))"
"CCCC[C@H](NC(=O)[C@H](CCCNC(=N)N)NC(=O)[C@H](CCC(=O)O)NC(=O)[C@@H](NC(=O)[C@H](CO)NC(=O)[C@H](C)NC(=O)[C@H](CC(C)C)NC(=O)[C@H](Cc1c[nH]cn1)NC(=O)[C@H](CCCCN)NC(=O)CNC(=O)[C@H](CC(C)C)NC(=O)[C@H](CC(N)=O)NC(=O)[C@H](Cc1c[nH]cn1)NC(=O)[C@H](CCCC)NC(=O)[C@H](CC(C)C)NC(=O)[C@H](CCC(N)=O)NC(=O)[C@@H](NC(=O)[C@H](CCC(=O)O)NC(=O)[C@H](CO)NC(=O)[C@@H](NC(=O)[C@H](C)N)C(C)C)[C@@H](C)CC)C(C)C)C(=O)N[C@@H](CCC(N)=O)C(=O)N[C@@H](Cc1c[nH]c2ccccc12)C(=O)N[C@@H](CC(C)C)C(=O)N[C@@H](CCCNC(=N)N)C(=O)N[C@@H](CCCCN)C(=O)N[C@@H](CCCCN)C(=O)N[C@@H](CC(C)C)C(=O)N[C@@H](CCC(N)=O)C(=O)N[C@@H](CC(=O)O)C(=O)N[C@H](C(=O)N[C@@H](Cc1c[nH]cn1)C(=O)N[C@@H](CC(N)=O)C(=O)N[C@@H](Cc1ccc(O)cc1)C(N)=O)C(C)C [PTH(1-34), [Nle^8,21, Tyr^34]PTH(1-34)amide, reference compound]",350 ± 30,–,–,–,–
"CC[C@H](C)[C@H](NC(=O)[C@H](CCC(=O)O)NC(=O)C(C)(C)NC(=O)[C@@H](NC(=O)C(C)(C)N)C(C)C)C(=O)N[C@@H](CCC(N)=O)C(=O)N[C@@H](CC(C)C)C(=O)N[C@@H](CCSC)C(=O)N[C@@H](Cc1c[nH]cn1)C(=O)N[C@@H](CCC(N)=O)C(=O)N[C@@H](CCCCNC(=N)N)C(=O)N[C@@H](C)C(=O)N[C@@H](CCCCN)C(=O)N[C@@H](Cc1c[nH]c2ccccc12)C(N)=O [[Aib^1,3,M]PTH(1-14), AibValAibGluIleGlnLeuMetHisGlnHarAlaLysTrp] (H-[Aib]V[Aib]EIQLMHQ[hArg]AKW-NH2)",320 ± 30,130,13,–,–
"CC[C@H](C)[C@H](NC(=O)[C@H](CCC(=O)O)NC(=O)[C@H](C)NC(=O)[C@@H](NC(=O)[C@H](C)N)C(C)C)C(=O)N[C@@H](CCC(N)=O)C(=O)N[C@@H](CC(C)C)C(=O)N[C@@H](CCSC)C(=O)N[C@@H](Cc1c[nH]cn1)C(=O)N[C@@H](CCC(N)=O)C(=O)N[C@@H](CCCCNC(=N)N)C(=O)N[C@@H](C)C(=O)N[C@@H](CCCCN)C(=O)N[C@@H](Cc1c[nH]c2ccccc12)C(N)=O [[M]PTH(1-14), [Ala^3,12,Gln^10,Har^11,Trp^14]PTH(1-14)amide, reference compound] (H-AVAEIQLMHQ[hArg]AKW-NH2)",340 ± 30,–,–,–,–
"H-AVSEIQLMHNLGKH-NH2 [PTH(1-14), reference compound]",–,–,–,N.R.,no activity could be detected
